Source: patent US9526680B2, “Method for searching for malodor control agent, malodor control agent, and malodor control method” (Kao Corporation, priority 2010, dated 2016)

Experiments:
Format in all cases: cell-based
[1] = target: T1, OR2W1 (Homo sapiens, UniProt Q9Y3N9); experiment: Luciferase reporter gene assay, OR2W1 expressed in HEK293 cells; settings: for Inhibition ratio of OR2W1 response: response to hexanoic acid, test substance added together with hexanoic acid, HEK293
T1 construct: expressed in transfected cells; host or cells: HEK293
T1 sequence (Q9Y3N9 1-320): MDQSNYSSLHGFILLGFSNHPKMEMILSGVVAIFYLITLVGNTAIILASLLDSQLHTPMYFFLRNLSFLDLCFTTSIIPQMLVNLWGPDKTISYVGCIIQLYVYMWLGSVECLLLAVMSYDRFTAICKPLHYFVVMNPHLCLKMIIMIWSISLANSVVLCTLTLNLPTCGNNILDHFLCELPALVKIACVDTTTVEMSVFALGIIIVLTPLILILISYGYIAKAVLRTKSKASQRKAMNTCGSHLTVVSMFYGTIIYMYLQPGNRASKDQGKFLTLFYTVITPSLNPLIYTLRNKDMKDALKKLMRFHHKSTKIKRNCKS
Method: (§1) Cloning of human olfactory receptors was performed based on the sequence information registered in GenBank, through PCR with human genomic DNA female (G1521: Promega) as a template. Each of the genes amplified through PCR was inserted into a pENTR vector (Invitrogen) according to an instruction manual. Then, the gene-inserted vector was digested with NotI and AscI, and the obtained fragments were inserted into NotI and AscI sites located downstream of the Flag-Rho tag sequence in the pME18S vector.
(§2) Each of the 350 types of human olfactory receptors was expressed in HEK293 cells. A reaction solution having a composition shown in Table 2 was prepared on a clean bench, and left to stand for 15 minutes. The solution was dispensed to each well of a 96-well plate (BD). Subsequently, […] cells (100 μL, 3×10^5 cells/cm^2) were seeded in each well and cultured for 24 hours in an incubator at 37° C. and under 5% CO2 conditions.
(§3) The olfactory receptor expressed in HEK293 cell was conjugated with cell-intrinsic Gas to activate adenylate cyclase, and thereby the level of intracellular cAMP was increased. For the measurement of the response to odor in this study, the luciferase reporter gene assay was used, in which an increase in the amount of intracellular cAMP was monitored by using the emission value originating from firefly luciferase gene (fluc2P-CRE-hygro) as an indicator. Furthermore, a gene product obtained by fusing renilla luciferase gene in the downstream of CMV promoter (hRluc-CMV) was simultaneously introduced, and this was used as an internal standard for correcting an error in the transgenesis efficiency or the number of cells. The medium was removed from the culture prepared in the above-described section 3) by using a Pipetman, and 75 μl of a solution containing an odor substance (1 mM hexanoic acid or 300 μM nonanoic acid) prepared in CD293 medium (Invitrogen) was added thereto. The cells were cultured for 4 hours in a CO2 incubator, and the luciferase gene was sufficiently expressed in the cells. For the measurement of luciferase activity, the measurement was carried out by using a Dual-Glo™ luciferase assay system (Promega) according to the operation manual of the product. A value calculated by dividing the emission value, derived from a firefly luciferase induced by the stimulation with an odor substance, by the emission value in cells that were not-stimulated with an odor substance, was designated as a fold increase, and used as an index of response intensity.
(§4) OR2W1, OR10A6, OR51E1, OR51I2, and OR51L1 were respectively expressed in HEK293 cells by the same method as that used in Example 1, and a luciferase assay was carried out. In the luciferase assay, hexanoic acid was used as the odorous substance, and test substances were added together with hexanoic acid. The response of the olfactory receptors to hexanoic acid was measured, and a decrease in the receptor response to the addition of test substances was evaluated.
(§5) The inhibition ratios of the receptor response to test substances were calculated as follows. The emission value (Y) obtained from the cells in which the same receptors were introduced but no odor stimulation was conducted, was subtracted from the emission value derived from firefly luciferase (X) induced by odor stimulation with hexanoic acid alone. Similarly, the emission value (Y) obtained from the cells in which no odor stimulation was conducted, was subtracted from the emission value (Z) caused by stimulation with a mixture of hexanoic acid and a test substance. By the following calculation formula, the inhibitory activity of the test substance to receptor response was calculated based on the increment of the emission value (X−Y) caused by stimulation of hexanoic acid alone. Multiple independent experiments were performed in duplicate, and the average of each experiment was obtained. Inhibition ratio (%)={1−(Z−Y)/(X−Y)}×100 […]

[2] = target: T2, OR10A6 (Homo sapiens, UniProt Q8NH74); experiment: Luciferase reporter gene assay, OR10A6 expressed in HEK293 cells; settings: response to hexanoic acid; test substance added together with hexanoic acid; HEK293
T2 construct: expressed in transfected cells; host or cells: HEK293
T2 sequence (Q8NH74 1-314): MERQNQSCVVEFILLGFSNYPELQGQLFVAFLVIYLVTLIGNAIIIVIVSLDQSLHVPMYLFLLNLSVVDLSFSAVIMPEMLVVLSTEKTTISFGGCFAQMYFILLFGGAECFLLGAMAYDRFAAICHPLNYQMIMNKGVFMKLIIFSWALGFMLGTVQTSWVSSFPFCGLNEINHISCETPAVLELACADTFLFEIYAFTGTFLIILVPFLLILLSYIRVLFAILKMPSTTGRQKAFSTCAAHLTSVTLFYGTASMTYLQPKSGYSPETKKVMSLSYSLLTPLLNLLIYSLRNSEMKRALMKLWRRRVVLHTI
Method: as §1, §2, §3, §4
The inhibition ratios of the receptor response to test substances were calculated as follows. The emission value (Y) obtained from the cells in which the same receptors were introduced but no odor stimulation was conducted, was subtracted from the emission value derived from firefly luciferase (X) induced by odor stimulation with hexanoic acid alone. Similarly, the emission value (Y) obtained from the cells in which no odor stimulation was conducted, was subtracted from the emission value (Z) caused by stimulation with a mixture of hexanoic acid and a test substance. By the following calculation formula, the inhibitory activity of the test substance to receptor response was calculated based on the increment of the emission value (X−Y) caused by stimulation of hexanoic acid alone. Multiple independent experiments were performed in duplicate, and the average of each experiment was obtained. Inhibition ratio (%)={1−(Z−Y)/(X−Y)}×100

[3] = target: T3, OR51I2 (Homo sapiens, UniProt Q9H344); experiment: Luciferase reporter gene assay, OR51I2 expressed in HEK293 cells
T3 construct: expressed in transfected cells; host or cells: HEK293
T3 sequence (Q9H344 1-312): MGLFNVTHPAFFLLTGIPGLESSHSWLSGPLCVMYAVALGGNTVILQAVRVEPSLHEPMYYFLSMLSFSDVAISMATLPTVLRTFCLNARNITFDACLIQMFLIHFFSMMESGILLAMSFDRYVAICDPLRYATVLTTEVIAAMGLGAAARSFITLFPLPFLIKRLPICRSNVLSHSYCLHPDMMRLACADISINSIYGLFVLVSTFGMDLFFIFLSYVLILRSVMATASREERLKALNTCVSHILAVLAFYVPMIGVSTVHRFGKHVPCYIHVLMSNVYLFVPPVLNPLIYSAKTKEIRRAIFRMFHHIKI
Method: as §1, §2, §3, §4, §5

[4] = 1 mM hexanoic acid, test substance 3, 10, 30, 100, 300 μM (FIG. 4)

Inhibition of OR2W1 response to hexanoic acid (in words) [1, 4] | Inhibition of OR51I2 response to hexanoic acid (in words) [3, 4] | Inhibition ratio of OR51I2 response ([3]; response to hexanoic acid, test substance added together with hexanoic acid, HEK293) | Compound | Inhibition ratio of OR2W1 response [1] | Inhibition ratio of OR10A6 response [2]
 |  |  | 2,4,6-trimethyl-3-cyclohexene-1-carboxyaldehyde, 3,5,6-trimethyl-3-cyclohexene-1-carboxyaldehyde [Isocyclocitral] | 1 (Inhibition ratio: 50% or higher) | 1 (Inhibition ratio: 50% or higher)
in a concentration-dependent manner | in a concentration-dependent manner | 1 (Inhibition ratio: 50% or higher) | CC(C)c1cccc(C(C)CC=O)c1 (stereo not drawn) [Florhydral, 3-(3-isopropylphenyl)-butyraldehyde] | 1 (Inhibition ratio: 50% or higher) | 
